{"source": "patent US20030152646A1", "about": "“Method of treating conditions caused by activated microglia” (priority 2001, published 2003)", "key": {"[1]": {"tested_on": "nitric oxide (NO) production", "assay": "Nitrite measurement (Griess reaction) in LPS-treated microglia-neuron co-cultures", "assay_type": "cell-based, rat", "details": "for effect on nitrite accumulation / NO production: 100 ng/ml LPS, 48 hours, same concentrations as for neuron survival"}, "TNF-α secretion": {"tested_on": "TNF-α secretion", "assay": "TNF-α Elisa of culture supernatants of LPS-treated microglia-neuron co-cultures", "assay_type": "cell-based, rat", "details": "100 ng/ml LPS, 48 hours; for effect on TNF-α secretion: PEN 500 μM, THA 200 μM", "protocol": "Levels of secreted TNF-α in culture supernatants were determined by an enzyme-linked immuno-sorbent assay (Elisa) kit following manufacturer's instructions (BioSource International, Camarillo, Calif.)."}, "microglia cells": {"tested_on": "microglia cells", "assay": "Superoxide generation by LPS-activated microglia (EPR, DMPO spin trap)", "assay_type": "cell-based, rat", "details": "100 ng/ml LPS", "protocol": "To monitor the generation of superoxide by activated microglia, Electron Paramagnetic Resonance (EPR) measurements were performed with 5,5-dimethyl-1-pyrroline-N-oxide (DMPO) as a superoxide spin trap. To confirm that the EPR signal is caused by superoxide, either superoxide dismutase (SOD) or DMSO, which competes with DMPO for hydroxyl radical, were added to the microglia cells together with LPS.\nFor EPR measurements, microglia cells (100,000) with or without LPS treatment were incubated in 200 μl culture medium containing 120 mm DMPO. After 15 minutes, the medium was removed and analyzed by EPR. EPR spectra were recorded on a Bruker ECS106 spectrometer with the following settings: receiver gain: 5×10^5; microwave power: 20 mW; microwave frequency: 9.81 GHz; modulation amplitude: 1 G; time constant: 1.3 seconds; scan time: 87 seconds; scan width: 80 G. The DMPO-OH signal generated from […] were quantified by comparison with TEMPOL standard after doubly integration of both signals. All scans shown are an accumulation of 7 scans."}, "neurons": {"tested_on": "neurons", "assay": "TUNEL staining of neurons from Aβ1-42-treated microglia-neuron co-cultures", "assay_type": "cell-based, rat", "details": "5 μM Aβ1-42 + 10 ng/ml interferon γ, 24 hours", "protocol": "DNA cleavage in apoptotic nuclei was detected with In Situ Cell Death Detection Kit as described by the manufacturer (Roche Molecular Biochemicals, Indianapolis, Ind.). Briefly, cells were fixed with paraformaldehyde (4% in PBS, pH 7.4) and permeablized (0.1% Triton X-100 in 0.1% sodium citrate). After incubation for 1 hr at 37° C. in terminal deoxynucleotidyl transferase (TdT) reaction mixture, signals were visualized under a fluorescence microscope (excitation/emission wavelengths: 450-500 nm/515-565 nm). Samples were further blotted with alkaline phosphatase-conjugated anti-fluorescein antibody. Following color reaction, samples were analyzed under a light microscope."}, "[2]": {"tested_on": "microglia-neuron co-cultures"}, "[3]": {"tested_on": "microglia-neuron co-cultures", "details": "100 ng/ml LPS"}, "[4]": {"tested_on": "nitric oxide (NO) production", "assay": "Nitrite measurement in microglia-neuron co-cultures treated with Aβ1-42 and interferon γ", "assay_type": "cell-based, rat", "details": "5 μM Aβ1-42 + 10 ng/ml interferon γ, 48 hour; FeTMPyP 2 μM", "protocol": "Nitric oxide (NO) production was determined indirectly through the assay of nitrite (NO2), a stable metabolite of NO, based on the Griess reaction (Huygen, 1970; Green et al., 1982; Ding et al., 1988). Briefly, a 50 μl aliquot of conditioned media was mixed with an equal volume of Griess reagent (0.1% N-(1-naphthyl)ethylenediamine dihydrochloride, 1% sufanilamide, and 2.5% phosphoric acid, all from Sigma), and incubated for 10 min at 22° C. The absorbance was read at 550 nm on a microtiter plate reader (Spectra MAX 250, Molecular Devices, Sunnyvale, Calif.). Nitrite concentrations were calculated from a standard curve of NaNO2 (Sigma) ranging from 0 to 100 μM. Background NO2 was subtracted from the experimental values."}, "primary cortical neurons": {"tested_on": "primary cortical neurons", "assay": "Neuron survival of primary cortical neurons treated with SIN-1", "assay_type": "cell-based, rat", "details": "50 μM SIN-1, 2 μM FeTMPyP, 48 hr", "protocol": "To validate the specificity and effectiveness of the peroxynitrite decomposition catalyst FeTMPyP, this catalyst was further tested with neuron cultures treated with SIN 1, an exogenous NO and superoxide donor that, consequently, generates peroxynitrite under physiological conditions [Hogg, 1992]. Primary cortical neurons were treated with 50 μM SIN-1 in the presence or absence of 2 μM FeTMPyP for 48 hr.\nNeuron cultures were derived from […] (embryonic day 17) Fishes 344 rat cerebral cortices detailed previously (Banker and Goslin, 1988; Rozovsky et al., 1994) and plated at 5×10^4 viable cells/well is poly-D-lysine (Sigma) coated 24-well plates (Costar). […]\nFollowing treatment, culture inserts containing microglia were removed and neurons were stained with 10 jig/ml fluorescein diacetate (FDA, Sigma) for 10 min. […] Since neuron deaths occur primarily in the region directly underneath the microglia-containing culture inserts (see FIG. 6D), for quantification, eight images at the center of each well were taken with a Nikon TE300 fluorescent microscope and analyzed with the IP Lab imaging software (version 3.54, Scanalytics, Fairfax, Va.). Viable neurons were quantified by the area covered by green fluorescence, after the establishment of a linear relationship between the numbers of stained cells and the green fluorescent area. […]"}}, "note": "“Also recorded” adds a separate entry of the source."}
{"compound": "O=C1CCC(N2C(=O)c3ccccc3C2=O)C(=O)N1", "note": "(stereo not drawn) [thalidomide]", "values": [{"measurement": "effect on nitrite accumulation / NO production", "setting": "[1]", "result": "inhibited"}, {"measurement": "effect on TNF-α secretion", "setting": "TNF-α secretion", "result": "inhibited"}]}
{"compound": "Lipopolysaccharide [LPS]", "values": [{"measurement": "beginning of nitrite generation", "setting": "[1]", "result": 6, "unit": "h"}, {"measurement": "peak of nitrite generation", "setting": "[1]", "result": "approximately 14 hours"}, {"measurement": "peak of superoxide generation", "setting": "microglia cells", "result": 12, "unit": "h"}]}
{"compound": "Aβ1-42: amyloid β-peptide 1-42, aggregated (fibrillar), applied with 10 ng/ml interferon γ as priming factor", "values": [{"measurement": "TUNEL-labeled neurons", "setting": "neurons", "result": "majority"}, {"measurement": "death of neurons", "setting": "[2]", "result": "over 80%"}, {"measurement": "neurotoxicity in the absence of microglia", "setting": "[2]", "result": "did not result in neurotoxicity"}]}
{"compound": "CNC(=N)NCCC[C@H](N)C(=O)O", "note": "[L-NMMA, N^G-Monomethyl-L-arginine]", "values": [{"measurement": "effect on nitrite accumulation / NO production", "setting": "[1]", "result": "completely blocked"}, {"measurement": "reduction of TNF-α secretion", "setting": "TNF-α secretion; 1 mM L-NMMA", "result": 35, "unit": "%"}, {"measurement": "viable neurons", "setting": "[3]; 48 hours, 1 mM L-NMMA added at the same time with LPS", "result": "92.4±7.4 % of control"}]}
{"compound": "Cl.O=S(=O)([O-])c1ccc(-c2c3nc(c(-c4ccc(S(=O)(=O)O)cc4)c4ccc([nH]4)c(-c4ccc(S(=O)(=O)O)cc4)c4nc(c(-c5ccc(S(=O)(=O)O)cc5)c5ccc2[nH]5)C=C4)C=C3)cc1.[Fe]", "note": "[FeTPPS, 5,10,15,20-Tetrakis(4-sulfonatophenyl)prophyrinato iron (III) chloride]", "values": [{"measurement": "effect on nitrite accumulation / NO production", "setting": "[1]", "result": "without decreasing NO production"}]}
{"compound": "CC(=O)CCCCn1c(=O)c2c(ncn2C)n(C)c1=O", "note": "[pentoxifylline]", "values": [{"measurement": "effect on nitrite accumulation / NO production", "setting": "[1]", "result": "little effect; also recorded: did not decrease nitrite/NO generation"}, {"measurement": "effect on TNF-α secretion", "setting": "TNF-α secretion", "result": "inhibits"}]}
{"compound": "C[n+]1ccc(-c2c3nc(c(-c4cc[n+](C)cc4)c4ccc([n-]4)c(-c4cc[n+](C)cc4)c4nc(c(-c5cc[n+](C)cc5)c5ccc2[n-]5)C=C4)C=C3)cc1.[Cl-].[Fe+3]", "note": "[FeTMPyP, 5,10,15,20-Tetrakis(N methyl-4′-pyridyl)porphinato iron (III) chloride]", "values": [{"measurement": "effect on nitrite accumulation / NO production", "setting": "[1]", "result": "without decreasing NO production"}, {"measurement": "effect on nitric oxide production", "setting": "[4]", "result": "without compromising nitric oxide production"}, {"measurement": "protection of neurons against SIN-1 induced peroxynitrite toxicity", "setting": "primary cortical neurons", "result": "effectively protected"}, {"measurement": "optimal concentration of protective action against LPS-induced microglial neurotoxicity", "setting": "[3]; dose-dependent", "result": 2, "unit": "µM"}]}
